Source: article PMC2248166, “Quantitative peptide binding motifs for 19 human and mouse MHC class I molecules derived using positional scanning combinatorial peptide libraries” (Immunome Research, 2008)
Where a SMILES comes first, the peptide text is derived from it.

Experiments:
Experiment in all cases: biochemical
Format in all cases: binding
HLA B*0801 = HLA B*0801 (Homo sapiens, UniProt P01889, A93T/A95T/D138N/E176V/E187T/K202T/Q94N/R180D/S35A/V36M/Y33D/Y91F)
HLA B*1501 = HLA B*1501 (Homo sapiens, UniProt P01889, A329T/A93T/A95T/C349S/D201E/D98Y/E187L/E204Q/E69M/E70A/K202T/N87E/Q94N/R155S/R180W/S121R/S35A/S48A/V306I/V36M/Y140S/Y91S)
HLA B*1503 = HLA B*1503 (Homo sapiens, UniProt P01889, A329T/A93T/A95T/C349S/D201E/D98Y/E187L/E204Q/K202T/N87E/Q94N/R155S/R180L/S121R/S35A/V306I/V36M/Y140S/Y91S)
HLA A*3001 = HLA A*3001 (Homo sapiens, UniProt P04439, D140H/D185E/E176W/F33S/G80R/H175R/K168Q/R138E/R41S)
Chain of HLA A*3001 (P04439 25-365 limits assumed, stated change not applied): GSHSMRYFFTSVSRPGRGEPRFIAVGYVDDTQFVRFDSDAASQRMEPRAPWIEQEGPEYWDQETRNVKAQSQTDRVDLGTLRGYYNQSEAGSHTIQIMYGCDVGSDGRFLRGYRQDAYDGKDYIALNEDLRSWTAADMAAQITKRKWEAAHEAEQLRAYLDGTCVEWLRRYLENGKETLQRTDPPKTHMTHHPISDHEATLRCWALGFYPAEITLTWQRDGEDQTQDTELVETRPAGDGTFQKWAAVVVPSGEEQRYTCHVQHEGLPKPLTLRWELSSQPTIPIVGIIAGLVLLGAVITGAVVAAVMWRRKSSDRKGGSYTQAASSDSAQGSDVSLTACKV

Row | SMILES | IC50 (HLA B*0801) [nM] | IC50 (HLA B*1501) [nM] | IC50 (HLA B*1503) [nM] | IC50 (HLA A*3001) [nM]
1 | CSCC[C@H](NC(=O)[C@@H](N)CC(C)C)C(=O)N[C@@H](Cc1ccccc1)C(=O)N[C@@H](CCCCN)C(=O)N[C@@H](Cc1c[nH]cn1)C(=O)N[C@@H](CC(C)C)C(=O)N[C@@H](CC(C)C)C(=O)N[C@@H](Cc1c[nH]cn1)C(=O)N1CCC[C@H]1C(=O)O [3102.0908] (H-LMFKHLLHP-OH) | 1 | 103 | 26 | –
2 | CC[C@H](C)[C@H](NC(=O)[C@@H](NC(=O)[C@H](CC(C)C)NC(=O)CNC(=O)[C@H](C)NC(=O)[C@H](Cc1ccc(O)cc1)NC(=O)[C@H](CCCCN)NC(=O)[C@H](CC(C)C)NC(=O)[C@@H](N)CC(C)C)[C@@H](C)O)C(=O)O [3102.1023] (H-LLKYAGLTI-OH) | 105 | 4.5 | – | –
3 | CSCC[C@H](N)C(=O)N[C@@H](Cc1ccccc1)C(=O)N[C@@H](CCCNC(=N)N)C(=O)N[C@@H](CCCCN)C(=O)N[C@@H](CCCCN)C(=O)N[C@@H](CCCNC(=N)N)C(=O)N[C@@H](CC(C)C)C(=O)N[C@@H](Cc1ccccc1)C(=O)N[C@@H](CC(C)C)C(=O)O [3102.0580] (H-MFRKKRLFL-OH) | 1.1 | – | – | 10
4 | CC[C@H](C)[C@H](NC(=O)[C@H](CS)NC(=O)[C@H](CS)NC(=O)[C@H](Cc1c[nH]cn1)NC(=O)[C@H](CCCNC(=N)N)NC(=O)[C@H](CO)NC(=O)[C@@H](NC(=O)[C@H](CCSC)NC(=O)[C@@H](N)CO)[C@@H](C)CC)C(=O)O [3102.0973] (H-SMISRHCCI-OH) | 1.3 | 81 | – | –
5 | CSCC[C@H](NC(=O)[C@@H](N)CO)C(=O)N[C@@H](Cc1c[nH]cn1)C(=O)N[C@@H](Cc1ccccc1)C(=O)N[C@@H](Cc1ccc(O)cc1)C(=O)NCC(=O)N[C@@H](Cc1c[nH]c2ccccc12)C(=O)N[C@@H](CO)C(=O)N[C@@H](CC(C)C)C(=O)O [3102.0946] (H-SMHFYGWSL-OH) | 2.9 | 63 | – | –
6 | CC[C@H](C)[C@H](NC(=O)[C@H](CCCCN)NC(=O)[C@@H]1CCCN1C(=O)[C@H](CCCNC(=N)N)NC(=O)[C@@H](NC(=O)[C@@H](N)CC(C)C)[C@@H](C)CC)C(=O)N[C@@H](CC(C)C)C(=O)N[C@@H](CO)C(=O)N[C@@H](CCSC)C(=O)O [3102.0983] (H-LIRPKILSM-OH) | 0.55 | 10 | – | –
7 | CC(C)C[C@H](NC(=O)[C@H](C)NC(=O)[C@H](CCCNC(=N)N)NC(=O)[C@H](Cc1c[nH]cn1)NC(=O)[C@H](CC(C)C)NC(=O)[C@H](Cc1c[nH]c2ccccc12)NC(=O)[C@H](CCCNC(=N)N)NC(=O)[C@@H](NC(=O)[C@@H](N)Cc1ccccc1)C(C)C)C(=O)O [3102.0526] (H-FVRWLHRAL-OH) | 1 | 16 | – | –
8 | CC(C)C[C@H](NC(=O)[C@@H](N)CC(C)C)C(=O)N[C@@H](CCCCN)C(=O)N1CCC[C@H]1C(=O)N[C@@H](CCCNC(=N)N)C(=O)N[C@@H](CS)C(=O)N[C@@H](CC(N)=O)C(=O)N1CCC[C@H]1C(=O)N[C@@H](C)C(=O)O [3102.0901] (H-LLKPRCNPA-OH) | 1.2 | 21 | – | –
9 | CC[C@H](C)[C@H](NC(=O)[C@H](C)N)C(=O)N[C@@H](CC(N)=O)C(=O)N[C@@H](CC(N)=O)C(=O)N[C@@H](CCCNC(=N)N)C(=O)N[C@H](C(=O)N[C@@H](CS)C(=O)N[C@H](C(=O)N[C@@H](CCSC)C(=O)O)C(C)C)[C@@H](C)CC [3102.0865] (H-AINNRICVM-OH) | 424 | 51 | – | –
10 | CC[C@H](C)[C@H](N)C(=O)N[C@@H](CC(C)C)C(=O)N[C@@H](Cc1c[nH]cn1)C(=O)N[C@@H](Cc1c[nH]cn1)C(=O)N[C@@H](Cc1c[nH]cn1)C(=O)N[C@@H](CCCNC(=N)N)C(=O)N[C@@H](CC(N)=O)C(=O)N[C@H](C(=O)N[C@@H](Cc1ccccc1)C(=O)O)C(C)C [3102.1250] (H-ILHHHRNVF-OH) | 13 | – | 1.3 | –
11 | CC(C)[C@H](NC(=O)[C@H](CCCNC(=N)N)NC(=O)[C@@H](N)Cc1ccccc1)C(=O)N[C@H](C(=O)N[C@@H](CCCCN)C(=O)N1CCC[C@H]1C(=O)N[C@@H](CC(N)=O)C(=O)N[C@@H](CO)C(=O)N[C@@H](Cc1ccccc1)C(=O)O)C(C)C [3102.1127] (H-FRVVKPNSF-OH) | 91 | 108 | – | –
12 | CSCC[C@H](NC(=O)[C@H](CC(=O)O)NC(=O)[C@@H](NC(=O)[C@H](Cc1ccccc1)NC(=O)[C@H](Cc1c[nH]cn1)NC(=O)[C@H](CCSC)NC(=O)[C@H](CO)NC(=O)[C@H](CCC(N)=O)NC(=O)[C@@H](N)Cc1ccccc1)[C@@H](C)O)C(=O)O [3102.1283] (H-FQSMHFTDM-OH) | 84 | – | 5.1 | –
13 | CC[C@H](C)[C@H](NC(=O)[C@@H](N)Cc1ccccc1)C(=O)N[C@@H](Cc1ccccc1)C(=O)N[C@@H](CC(C)C)C(=O)N[C@@H](CCCCN)C(=O)N[C@@H](CCCCN)C(=O)N[C@@H](CC(N)=O)C(=O)N[C@@H](CCC(=O)O)C(=O)N[C@@H](CC(C)C)C(=O)O [3102.0673] (H-FIFLKKNEL-OH) | 97 | – | – | 44
14 | CC[C@H](C)[C@H](NC(=O)[C@@H](N)CC(C)C)C(=O)N[C@@H](CCCNC(=N)N)C(=O)N[C@@H](CC(N)=O)C(=O)N[C@@H](CCCCN)C(=O)N[C@@H](CCCNC(=N)N)C(=O)N[C@@H](CC(C)C)C(=O)N[C@@H](CO)C(=O)N[C@@H](CC(C)C)C(=O)O [3102.0638] (H-LIRNKRLSL-OH) | 0.78 | 455 | – | –
15 | CC(C)[C@H](NC(=O)[C@H](C)NC(=O)[C@H](CO)NC(=O)[C@H](Cc1ccc(O)cc1)NC(=O)[C@H](CCCNC(=N)N)NC(=O)CNC(=O)[C@H](Cc1ccc(O)cc1)NC(=O)[C@@H](NC(=O)[C@@H](N)CCCCN)C(C)C)C(=O)O [3102.0117] (H-KVYGRYSAV-OH) | 4.2 | 95 | – | –
16 | CC[C@H](C)[C@H](NC(=O)[C@H](CO)NC(=O)[C@H](CCCNC(=N)N)NC(=O)[C@H](CO)NC(=O)[C@H](CCSC)NC(=O)[C@H](CO)NC(=O)[C@H](CCCNC(=N)N)NC(=O)[C@@H](NC(=O)[C@@H](N)CO)[C@@H](C)CC)C(=O)O [3102.0527] (H-SIRSMSRSI-OH) | 77 | 363 | – | –
17 | CC[C@H](C)[C@H](NC(=O)[C@H](Cc1ccccc1)NC(=O)[C@H](CCSC)NC(=O)[C@H](Cc1ccccc1)NC(=O)[C@H](CCCCN)NC(=O)[C@H](CC(N)=O)NC(=O)[C@H](CCCNC(=N)N)NC(=O)[C@@H](NC(=O)[C@@H](N)CCCNC(=N)N)[C@@H](C)CC)C(=O)O [3102.0998] (H-RIRNKFMFI-OH) | 1.6 | – | – | 0.069
18 | CC[C@H](C)[C@H](NC(=O)[C@@H](N)CC(C)C)C(=O)NCC(=O)N[C@@H](C)C(=O)N[C@@H](CCCNC(=N)N)C(=O)N[C@@H](CCCNC(=N)N)C(=O)N[C@H](C(=O)N[C@@H](CO)C(=O)N[C@@H](Cc1ccccc1)C(=O)O)[C@@H](C)O [3102.0774] (H-LIGARRTSF-OH) | 1.5 | 40 | – | –
19 | CC[C@H](C)[C@H](NC(=O)[C@H](CCCCN)NC(=O)[C@H](CC(N)=O)NC(=O)[C@H](CCCCN)NC(=O)[C@@H](NC(=O)[C@@H](N)Cc1ccccc1)[C@@H](C)CC)C(=O)N[C@@H](Cc1c[nH]cn1)C(=O)N[C@@H](CC(C)C)C(=O)N[C@@H](CC(C)C)C(=O)O [3102.0551] (H-FIKNKIHLL-OH) | 0.82 | 98 | – | –
20 | CC[C@H](C)[C@H](NC(=O)[C@H](CO)NC(=O)[C@@H](N)CCCNC(=N)N)C(=O)N[C@@H](CCCNC(=N)N)C(=O)N[C@@H](CCCCN)C(=O)N[C@@H](Cc1ccccc1)C(=O)N[C@@H](CC(N)=O)C(=O)N[C@H](C(=O)N[C@@H](CCSC)C(=O)O)[C@@H](C)O [3102.1003] (H-RSIRKFNTM-OH) | 17 | 4.4 | – | –
21 | CC(C)C[C@H](NC(=O)[C@@H](N)CCC(=O)O)C(=O)N[C@@H](CCCCN)C(=O)N[C@@H](CCC(=O)O)C(=O)N[C@@H](CCCCN)C(=O)N[C@@H](CO)C(=O)N[C@H](C(=O)N[C@@H](CCCCN)C(=O)N[C@@H](Cc1ccccc1)C(=O)O)C(C)C [3102.0712] (H-ELKEKSVKF-OH) | 3.2 | – | – | –
22 | CC(C)C[C@H](NC(=O)[C@H](CCCCN)NC(=O)[C@H](CCCNC(=N)N)NC(=O)[C@@H](N)CCCNC(=N)N)C(=O)N[C@@H](CC(C)C)C(=O)N[C@@H](CCCNC(=N)N)C(=O)N[C@@H](CCCNC(=N)N)C(=O)N1CCC[C@H]1C(=O)N[C@@H](Cc1ccccc1)C(=O)O [3102.0530] (H-RRKLLRRPF-OH) | 11 | – | – | –
23 | CC[C@H](C)[C@H](NC(=O)[C@@H](N)CO)C(=O)N[C@@H](Cc1c[nH]cn1)C(=O)N[C@@H](CCC(=O)O)C(=O)N[C@@H](CCCCN)C(=O)N[C@@H](Cc1ccccc1)C(=O)N[C@@H](Cc1c[nH]c2ccccc12)C(=O)N1CCC[C@H]1C(=O)N[C@@H](CC(C)C)C(=O)O [3102.0550] (H-SIHEKFWPL-OH) | 1.4 | – | – | –
24 | CC[C@H](C)[C@H](NC(=O)[C@@H]1CCCN1C(=O)[C@H](CC(C)C)NC(=O)[C@H](Cc1ccccc1)NC(=O)[C@H](CO)NC(=O)[C@H](CCSC)NC(=O)[C@H](CCCCN)NC(=O)[C@H](CO)NC(=O)[C@@H](N)CCC(=O)O)C(=O)O [3102.0979] (H-ESKMSFLPI-OH) | 1.1 | 358 | – | –
25 | CSCC[C@H](NC(=O)[C@H](CC(C)C)NC(=O)[C@@H](N)CCSC)C(=O)N[C@@H](CCC(=O)O)C(=O)N[C@H](C(=O)N[C@@H](Cc1ccccc1)C(=O)N1CCC[C@H]1C(=O)N[C@@H](CCC(N)=O)C(=O)N[C@@H](CC(C)C)C(=O)O)C(C)C [3102.0725] (H-MLMEVFPQL-OH) | 13 | – | – | –
26 | CC[C@H](C)[C@H](NC(=O)[C@@H](N)CC(N)=O)C(=O)N[C@@H](CCSC)C(=O)N1CCC[C@H]1C(=O)N[C@@H](CC(C)C)C(=O)N[C@@H](Cc1ccccc1)C(=O)N1CCC[C@H]1C(=O)N[C@H](C(=O)N[C@@H](Cc1ccccc1)C(=O)O)[C@@H](C)O [3102.0648] (H-NIMPLFPTF-OH) | 48 | – | – | –
